What all share (type): functional, cell-based
In one test the test system is MCF7. The test can be described thus: Cytotoxicity against human MCF7 cells after 48 hrs by MTT assay. The settings on record: MCF7, 48 h. (Tetrazolium assays rely on reduction of a dye to a coloured formazan, in cell work by metabolically active cells.)
In another test the test system is K562. The test can be described thus: Cytotoxicity against human K562 cells after 48 hrs by MTT assay. The settings on record: K562, 48 h.
The next test concerns MDA-MB-231. The test can be described thus: Cytotoxicity against human MDA-MB-231 cells after 48 hrs by MTT assay.
The test system of the next test is BT-474. Kind of test: Cytotoxicity against human BT474 cells after 48 hrs by MTT assay.

Active and inactive are the calls of the source. The calls are words filed in the database; no cut-off is given here.

`O=c1c(-c2ccc(O)cc2)coc2cc(O)cc(O)c12` [GENISTEIN] displayed an IC50 with MCF7 of 1000 nM.
`Oc1ccc(CCc2cc(O)cc(O)c2)cc1` [DIHYDRORESVERATROL] gave an IC50 with K562 below 1000 nM. For the same compound, the outcome in the test with MDA-MB-231 and with BT-474 was inactive.

Usually IC50 stands for the concentration that gives 50% inhibition. Low readings indicate inhibition by little substance, high ones a need for much substance.

Values taken from ChEMBL document CHEMBL1255173, “Dihydro-resveratrol--a potent dietary polyphenol” (Bioorg Med Chem Lett, 2010).
